Reference: PubChem BioAssay AID192 (DTP/NCI, 2004)
Values joined by “and” are separate entries in the source; they are usually repeats but may differ in a detail not shown here. Identical values can stand only once. Inconclusive results and toxic doses are left out.

Tested on: BDF1 mice, B16 melanoma ip, median survival T/C
Assay: NCI In Vivo Anticancer Drug Screen. Data for tumor model B16 Melanoma (intraperitoneal) in B6D2F1 (BDF1) mice
Conditions: endpoint: median survival time, higher = longer survival
In short: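 In this screen, activity was judged from survival or tumor size in treated versus vehicle-treated tumor-bearing mice, reported as T/C.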

[1] = dose: 400.0 mg/kg/injection, schedule: Q01DX009 (ip), vehicle: saline
[2] = dose: 1.0 mg/kg/injection, schedule: Q01DX009 (ip), vehicle: saline
[3] = dose: 2.0 mg/kg/injection, schedule: Q01DX009 (ip), vehicle: saline
[4] = dose: 4.0 mg/kg/injection, schedule: Q01DX009 (ip), vehicle: saline
[5] = dose: 25.0 mg/kg/injection, schedule: Q01DX009 (ip), vehicle: saline
[6] = dose: 50.0 mg/kg/injection, schedule: Q01DX009 (ip), vehicle: saline
[7] = dose: 100.0 mg/kg/injection, schedule: Q01DX009 (ip), vehicle: saline
[8] = dose: 200.0 mg/kg/injection, schedule: Q01DX009 (ip), vehicle: saline
[9] = dose: 50.0 mg/kg/injection, schedule: Q01DX009 (ip), vehicle: Klucel (hydroxypropylcellulose) (HPC)
[10] = dose: 100.0 mg/kg/injection, schedule: Q01DX009 (ip), vehicle: Klucel (hydroxypropylcellulose) (HPC)
[11] = dose: 200.0 mg/kg/injection, schedule: Q01DX009 (ip), vehicle: Klucel (hydroxypropylcellulose) (HPC)
[12] = dose: 6.25 mg/kg/injection, schedule: Q01DX009 (ip), vehicle: saline
[13] = dose: 12.5 mg/kg/injection, schedule: Q01DX009 (ip), vehicle: saline
[14] = dose: 50.0 mg/kg/injection, schedule: Q01DX009 (ip), vehicle: saline with Tween-80
[15] = dose: 100.0 mg/kg/injection, schedule: Q01DX009 (ip), vehicle: saline with Tween-80
[16] = dose: 200.0 mg/kg/injection, schedule: Q01DX009 (ip), vehicle: saline with Tween-80
[17] = dose: 400.0 mg/kg/injection, schedule: Q01DX009 (ip), vehicle: Klucel (hydroxypropylcellulose) (HPC)

For `C=CN1CCCC1=O`, the T/C (dose: 178.0 mg/kg/injection, schedule: Q01DX009 (ip), vehicle: saline) was 109 % of control, the T/C (dose: 266.0 mg/kg/injection, schedule: Q01DX009 (ip), vehicle: saline) was 100 % of control and the T/C [1] was 104 % of control. The T/C (dose: 600.0 mg/kg/injection, schedule: Q01DX009 (ip), vehicle: saline) was 111 % of control and the T/C (dose: 750.0 mg/kg/injection, schedule: Q01DX009 (ip), vehicle: saline) was 108 % of control.

`CN(C)CCCN1c2ccccc2Sc2ccc(Cl)cc21` was tested, and the T/C [2] was 101 % of control, the T/C [3] was 111 % of control and 93 % of control and the T/C [4] was 110 % of control and 100 % of control. For the same molecule, the T/C (dose: 8.0 mg/kg/injection, schedule: Q01DX009 (ip), vehicle: saline) was 92 % of control and 102 % of control, the T/C (dose: 12.5 mg/kg/injection, schedule: Q01DX009 (ip), vehicle: alkali diluted with saline) was 100 % of control and the T/C (dose: 12.5 mg/kg/injection, schedule: Q01DX009 (ip), vehicle: saline sonified) was 97 % of control. For the same molecule, the T/C (dose: 16.0 mg/kg/injection, schedule: Q01DX009 (ip), vehicle: saline) was 94 % of control, the T/C (dose: 25.0 mg/kg/injection, schedule: Q01DX009 (ip), vehicle: alkali diluted with saline) was 92 % of control and the T/C (dose: 25.0 mg/kg/injection, schedule: Q01DX009 (ip), vehicle: saline sonified) was 90 % of control. The T/C (dose: 32.0 mg/kg/injection, schedule: Q01DX009 (ip), vehicle: saline) was 92 % of control and the T/C (dose: 64.0 mg/kg/injection, schedule: Q01DX009 (ip), vehicle: saline) was 87 % of control.

`CSCCC(NC(C)=O)C(=O)NNC(C)C` (configuration not stated) was tested, and the T/C [5] was 105 % of control, the T/C [6] was 88 % of control and the T/C [7] was 123 % of control. The T/C [8] was 88 % of control and the T/C [1] was 97 % of control.

In the case of `CCc1ccc(NC(=O)NC(C)C)cc1`, the T/C [9] is reported as 112 % of control, the T/C [10] is reported as 109 % of control and the T/C [11] is reported as 103 % of control.

For `Cc1ccc(C)c(C2NC(=O)c3ccccc3N2)c1` (configuration not stated), the T/C [10] was 121 % of control and the T/C [11] was 115 % of control.

With `CCCOP(OCCC)OCCC` the T/C [12] was 109 % of control, the T/C [13] was 118 % of control and the T/C [5] was 100 % of control. The T/C [6] was 92 % of control.

With `O=C1C=CC(=O)N1Cc1ccco1` the T/C (dose: 65.0 mg/kg/injection, schedule: Q01DX009 (ip), vehicle: saline) was 108 % of control, the T/C [7] was 103 % of control and 117 % of control and the T/C (dose: 150.0 mg/kg/injection, schedule: Q01DX009 (ip), vehicle: saline) was 114 % of control and 117 % of control. The T/C [8] was 113 % of control and the T/C [1] was 113 % of control.

In the case of `CCCCCCCCP(=O)(N1CC1C)N1CC1C` (configuration not stated), the T/C (dose: 3.12 mg/kg/injection, schedule: Q01DX009 (ip), vehicle: saline) is reported as 101 % of control, the T/C [12] is reported as 102 % of control and the T/C [13] is reported as 97 % of control. For the same molecule, the T/C [5] was 102 % of control.

For `CCOC(C)C(/C=N/NC(N)=S)=NNC(N)=S` (configuration not stated), the T/C [14] was 90 % of control.

With `CC1=CC(=O)[C@@H](O)[C@]2(C)[C@H]3[C@@]4(O)OC[C@]35[C@H]([C@@H](C)[C@H]4O)[C@@H](OC(=O)c3ccccc3)C(=O)O[C@@H]5C[C@@H]12` the T/C (dose: 0.25 mg/kg/injection, schedule: Q01DX009 (ip), vehicle: saline with Tween-80) was 118 % of control and the T/C (dose: 2.0 mg/kg/injection, schedule: Q01DX009 (ip), vehicle: saline with Tween-80) was 171 % of control.

With `CC(=O)OCC12CCC(C)=CC1OC1C(=O)CC2(C)C12CO2` (configuration not stated) the T/C (dose: 0.5 mg/kg/injection, schedule: Q01DX009 (ip), vehicle: saline) was 101 % of control, the T/C [2] was 110 % of control and the T/C [3] was 113 % of control. For the same molecule, the T/C [4] was 98 % of control.

In the case of `O=C(O)c1[nH]c(=O)[nH]c(=O)c1N1CCCCC1`, the T/C (dose: 25.0 mg/kg/injection, schedule: Q04DX003 (ip), vehicle: Klucel (hydroxypropylcellulose) (HPC)) is reported as 110 % of control and the T/C (dose: 50.0 mg/kg/injection, schedule: Q04DX003 (ip), vehicle: Klucel (hydroxypropylcellulose) (HPC)) is reported as 86 % of control.

`O=C(O)c1cccc2c1S(=O)(=O)c1ccccc1C2=O` was tested, and the T/C (dose: 75.0 mg/kg/injection, schedule: Q01DX009 (ip), vehicle: Klucel (hydroxypropylcellulose) (HPC)) was 100 % of control, the T/C (dose: 150.0 mg/kg/injection, schedule: Q01DX009 (ip), vehicle: Klucel (hydroxypropylcellulose) (HPC)) was 97 % of control and the T/C (dose: 300.0 mg/kg/injection, schedule: Q01DX009 (ip), vehicle: Klucel (hydroxypropylcellulose) (HPC)) was 100 % of control.

With `O=C1CC2(CCCCC2)CO1` the T/C (dose: 0.09 mg/kg/injection, schedule: Q01DX009 (ip), vehicle: saline) was 102 % of control, the T/C (dose: 0.19 mg/kg/injection, schedule: Q01DX009 (ip), vehicle: saline) was 95 % of control and the T/C (dose: 0.39 mg/kg/injection, schedule: Q01DX009 (ip), vehicle: saline) was 91 % of control. For the same molecule, the T/C (dose: 0.78 mg/kg/injection, schedule: Q01DX009 (ip), vehicle: saline) was 95 % of control and the T/C (dose: 1.56 mg/kg/injection, schedule: Q01DX009 (ip), vehicle: saline) was 95 % of control.

With `C=C1C(=O)OC2CC3(C)CC(O)C(O)C(=C)C3CC12` (configuration not stated) the T/C [9] was 104 % of control and the T/C [10] was 101 % of control.

With `NC(=O)CC(N)C(=O)O` (configuration not stated) the T/C (dose: 50.0 mg/kg/injection, schedule: Q01DX009 (ip), vehicle: other) was 99 % of control, the T/C (dose: 100.0 mg/kg/injection, schedule: Q01DX009 (ip), vehicle: other) was 96 % of control and the T/C [7] was 92 % of control. For the same molecule, the T/C (dose: 200.0 mg/kg/injection, schedule: Q01DX009 (ip), vehicle: other) was 105 % of control, the T/C [8] was 87 % of control and the T/C (dose: 400.0 mg/kg/injection, schedule: Q01DX009 (ip), vehicle: other) was 96 % of control. For the same molecule, the T/C [1] was 87 % of control, the T/C (dose: 800.0 mg/kg/injection, schedule: Q01DX009 (ip), vehicle: other) was 104 % of control and the T/C (dose: 1600.0 mg/kg/injection, schedule: Q01DX009 (ip), vehicle: other) was 103 % of control.

With `CCc1ccc(C(=O)CCCCl)cc1` the T/C [14] was 102 % of control, the T/C [15] was 100 % of control and the T/C [16] was 109 % of control.

With `Cc1ccc(S(=O)(=O)OCCN(CCOS(=O)(=O)c2ccc(C)cc2)c2ccc(F)cc2)cc1` the T/C (dose: 0.17 mg/kg/injection, schedule: Q01DX009 (ip), vehicle: saline) was 115 % of control, the T/C (dose: 0.35 mg/kg/injection, schedule: Q01DX009 (ip), vehicle: saline) was 108 % of control and the T/C (dose: 0.7 mg/kg/injection, schedule: Q01DX009 (ip), vehicle: saline) was 106 % of control. For the same molecule, the T/C (dose: 1.5 mg/kg/injection, schedule: Q01DX009 (ip), vehicle: saline) was 115 % of control, the T/C (dose: 3.13 mg/kg/injection, schedule: Q01DX009 (ip), vehicle: saline) was 119 % of control and the T/C [12] was 117 % of control. For the same molecule, the T/C (dose: 12.5 mg/kg/injection, schedule: Q01DX009 (ip), vehicle: saline + alcohol) was 88 % of control, the T/C (dose: 50.0 mg/kg/injection, schedule: Q01DX009 (ip), vehicle: saline + alcohol) was 110 % of control and the T/C [6] was 154 % of control. The T/C (dose: 100.0 mg/kg/injection, schedule: Q01DX009 (ip), vehicle: saline + alcohol) was 104 % of control.

`Cc1ccc(C2NC(=O)c3ccccc3N2)s1` (configuration not stated) was tested, and the T/C [9] was 99 % of control, the T/C [10] was 102 % of control and the T/C [11] was 105 % of control. For the same molecule, the T/C [17] was 96 % of control.

With `CCCCC(NC(=O)OC(C)(C)C)C(=O)O` (configuration not stated) the T/C [10] was 114 % of control, the T/C [11] was 104 % of control and the T/C [17] was 100 % of control.

In the case of `Clc1ccc(C(c2ccccc2Cl)C(Cl)Cl)cc1` (configuration not stated), the T/C [14] is reported as 95 % of control, the T/C [15] is reported as 95 % of control and the T/C [16] is reported as 90 % of control.

With `C[N+](C)(C)C1CC1` the T/C [13] was 105 % of control, the T/C [5] was 102 % of control and the T/C [6] was 102 % of control.

In the case of `CC(C)(C)C1CCNC(=O)CC1` (configuration not stated), the T/C (dose: 5.0 mg/kg/injection, schedule: Q01DX009 (ip), vehicle: Klucel (hydroxypropylcellulose) (HPC)) is reported as 88 % of control, the T/C (dose: 10.0 mg/kg/injection, schedule: Q01DX009 (ip), vehicle: Klucel (hydroxypropylcellulose) (HPC)) is reported as 94 % of control and the T/C (dose: 20.0 mg/kg/injection, schedule: Q01DX009 (ip), vehicle: Klucel (hydroxypropylcellulose) (HPC)) is reported as 97 % of control.

For `CCCCN(CCCC)c1ccc(C(=O)O)cc1`, the T/C [14] was 102 % of control, the T/C [15] was 94 % of control and the T/C [16] was 103 % of control.

`O=C(NCCCl)N(c1ccccc1)c1cccc(C(F)(F)F)c1` was tested, and the T/C (dose: 100.0 mg/kg/injection, schedule: Q04DX003 (ip), vehicle: Klucel (hydroxypropylcellulose) (HPC)) was 114 % of control, the T/C (dose: 200.0 mg/kg/injection, schedule: Q04DX003 (ip), vehicle: Klucel (hydroxypropylcellulose) (HPC)) was 105 % of control and the T/C (dose: 400.0 mg/kg/injection, schedule: Q04DX003 (ip), vehicle: Klucel (hydroxypropylcellulose) (HPC)) was 106 % of control.
